Data taken from patent US12233161B1, “Lipids and lipid nanoparticle formulations” (LONGUIDE BIOPHARMA CORPORATION, priority 2024, dated 2025).

What was measured:
[1] = Potential characterization of nucleic acid lipid nanoparticle preparations; assay type: physicochemical
Experimental: 20 μL of the nucleic acid lipid nanoparticle solution (containing about 0.04 mg/mL mRNA) was taken and added with 780 μL of ultrapure water, used a pipette tip to gently blow and mix, and the potential of the nanopreparation was detected by Malvern particle sizer (model ZEN3700).
27.5 μL nucleic acid lipid nanoparticle solution (containing about 0.04 mg/mL mRNA) was taken and added with 200 μL ultrapure water. A pipette tip was used to gently blow the sample and mix well. The particle size of the nanopreparation was detected by Malvern Dynamic Light Scattering Instrument (Malvern Instruments Ltd., ZEN3700, UK). After the detection, the sample was recovered to an EP tube, and 600 μL of ultrapure water was added, gently blown with a pipette tip, and the potential of the nanopreparation was measured by a Malvern particle size meter.

mice = test: In vivo delivery of FLuc-mRNA lipid nanoparticles in mice, in vivo imaging (IVIS); details: for IVIS: Fluc-mRNA
How it was run: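 Mice (n=3) received about 75 μL FLuc-mRNA LNP per mouse intramuscularly (rectus femoris), intravenously (tail vein), intraperitoneally or subcutaneously (back). After injection, D-luciferin (200 μL, 15 mg/mL) was given i.p. 10-15 min before IVIS imaging.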

[2] = Particle size and PDI of nucleic acid lipid nanoparticle preparations by dynamic light scattering; assay type: physicochemical
How it was run: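 LNP solution (about 0.04 mg/mL mRNA before dilution) was diluted in ultrapure water and mixed by gentle pipetting. Particle size and PDI were then measured by dynamic light scattering.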

[3] = DMG-PEG2000:DSPC:Chol:compound 1.40:11.15:38.95:48.50, N/P 20
[4] = IM, DMG-PEG2000:DSPC:Chol:compound 1.40:11.15:38.95:48.50, N/P 20
[5] = IV, organ not given, DMG-PEG2000:DSPC:Chol:compound 1.40:11.15:38.95:48.50, N/P 20
[6] = DMG-PEG2000:DSPC:Chol:compound 1.40:11.15:38.95:48.50, N/P 30
[7] = IM, DMG-PEG2000:DSPC:Chol:compound 1.40:11.15:38.95:48.50, N/P 30
[8] = IV, organ not given, DMG-PEG2000:DSPC:Chol:compound 1.40:11.15:38.95:48.50, N/P 30
[9] = IV, body, DMG-PEG2000:DSPC:Chol:compound 1.40:11.15:38.95:48.50, N/P 30
[10] = IV, liver, DMG-PEG2000:DSPC:Chol:compound 1.40:11.15:38.95:48.50, N/P 30
[11] = IV, lung, DMG-PEG2000:DSPC:Chol:compound 1.40:11.15:38.95:48.50, N/P 30
[12] = IV, spleen, DMG-PEG2000:DSPC:Chol:compound 1.40:11.15:38.95:48.50, N/P 30
[13] = IV, liver, DMG-PEG2000:DSPC:Chol:compound 1.40:11.15:38.95:48.50, N/P 20
[14] = IV, lung, DMG-PEG2000:DSPC:Chol:compound 1.40:11.15:38.95:48.50, N/P 20
[15] = IV, spleen, DMG-PEG2000:DSPC:Chol:compound 1.40:11.15:38.95:48.50, N/P 20

Zeta potential (mV) [1, 3] [mV]	PDI [2, 3]	Particle size (nm) [2, 3] [nm]	Zeta potential (mV) [1, 6] [mV]	PDI [2, 6]	Particle size (nm) [2, 6] [nm]	Compound	IVIS (mice; [4])	IVIS (mice; [5])	IVIS (mice; [7])	IVIS (mice; [9])	% of organ targeting (mice; [10]) [%]	IVIS (mice; [10])	% of organ targeting (mice; [11]) [%]	IVIS (mice; [11])	% of organ targeting (mice; [12]) [%]	IVIS (mice; [12])	other results
11.33	0.26	559.3	–	–	–	CCCCCCCCCCOC(=O)C(O)CN(CCOCCN(CC(O)C(=O)OCCCCCCCCCC)CC(O)C(=O)OCCCCCCCCCC)CC(O)C(=O)OCCCCCCCCCC (centres unmarked) [Compound L0314]	3.31E+05	2.35E+05	–	–	–	–	–	–	–	–	–
–	–	–	12.5	0.13	141.63	CCCCCCCCCCOC(=O)C(O)CN(C)CCCN(C)CCCN(C)CC(O)C(=O)OCCCCCCCCCC (centres unmarked) [Compound L0315]	–	–	8.43E+05	–	–	–	–	–	–	–	IVIS (mice; [8]): 5.00E+05
–	–	–	18.97	0.12	125.9	CCCCCCOC(C)OCCCCCCOC(=O)C(O)CN(CCCN(C)CCCN(CC(O)C(=O)OCCCCCCOC(C)OCCCCCC)CC(O)C(=O)OCCCCCCOC(C)OCCCCCC)CC(O)C(=O)OCCCCCCOC(C)OCCCCCC (centres unmarked) [Compound L0316]	–	–	4.46E+06	–	–	–	–	–	–	–	IVIS (mice; [8]): 3.53E+08
–	–	–	13.53	0.15	117.83	CCCCCCCC/C=C\CCCCCCCCNC(=O)C(O)CN(CCCN(C)CCCN(CC(O)C(=O)NCCCCCCCC/C=C\CCCCCCCC)CC(O)C(=O)NCCCCCCCC/C=C\CCCCCCCC)CC(O)C(=O)NCCCCCCCC/C=C\CCCCCCCC (centres unmarked) [Compound L0317]	–	–	1.53E+06	3.60E+07	3.15	2.78E+06	79.76	7.03E+07	17.09	1.51E+07	–
11.23	0.25	571.13	–	–	–	CCCCCCCCCCOC(=O)C(O)CN(CCCCCN(CC(O)C(=O)OCCCCCCCCCC)CC(O)C(=O)OCCCCCCCCCC)CC(O)C(=O)OCCCCCCCCCC (centres unmarked) [Compound L0318]	5.83E+05	2.09E+05	–	–	–	–	–	–	–	–	–
11.20	0.13	172.83	–	–	–	CCCCCCCCCCCCOC(=O)C(O)CN(CCCCCN(CC(O)C(=O)OCCCCCCCCCCCC)CC(O)C(=O)OCCCCCCCCCCCC)CC(O)C(=O)OCCCCCCCCCCCC (centres unmarked) [Compound L0319]	7.22E+05	1.32E+06	–	–	–	–	–	–	–	–	–
10.39	0.10	120.33	–	–	–	CCCCCCCCCCNC(=O)C(O)CN(CCCCCN(CC(O)C(=O)NCCCCCCCCCC)CC(O)C(=O)NCCCCCCCCCC)CC(O)C(=O)NCCCCCCCCCC (centres unmarked) [Compound L0320]	1.45E+05	6.60E+05	–	–	–	–	–	–	–	–	–
−0.61	0.48	207.73	–	–	–	CCCCCCCCCCOC(=O)C(O)CN(CCCCCCCN(CC(O)C(=O)OCCCCCCCCCC)CC(O)C(=O)OCCCCCCCCCC)CC(O)C(=O)OCCCCCCCCCC (centres unmarked) [Compound L0321]	1.37E+05	2.11E+05	–	–	–	–	–	–	–	–	–
9.14	0.40	260.70	–	–	–	CCCCCCCCCCCCOC(=O)C(O)CN(CCCCCCCN(CC(O)C(=O)OCCCCCCCCCCCC)CC(O)C(=O)OCCCCCCCCCCCC)CC(O)C(=O)OCCCCCCCCCCCC (centres unmarked) [Compound L0322]	8.23E+05	2.72E+05	–	–	–	–	–	–	–	–	–
8.37	0.14	94.78	–	–	–	CCCCCCCCCCNC(=O)C(O)CN(CCCCCCCN(CC(O)C(=O)NCCCCCCCCCC)CC(O)C(=O)NCCCCCCCCCC)CC(O)C(=O)NCCCCCCCCCC (centres unmarked) [Compound L0323]	7.24E+05	–	–	–	–	–	–	–	–	–	IVIS (mice; IV, body, DMG-PEG2000:DSPC:Chol:compound 1.40:11.15:38.95:48.50, N/P 20): 2.95E+06; % of organ targeting (mice; [13]): 44.01%; IVIS (mice; [13]): 8.40E+05; % of organ targeting (mice; [14]): 6.06%; IVIS (mice; [14]): 1.16E+05; % of organ targeting (mice; [15]): 49.93%; IVIS (mice; [15]): 9.53E+05
5.44	0.47	445.20	–	–	–	CCCCCCCCCCOC(=O)C(O)CN(CCOCCOCCN(CC(O)C(=O)OCCCCCCCCCC)CC(O)C(=O)OCCCCCCCCCC)CC(O)C(=O)OCCCCCCCCCC (centres unmarked) [Compound L0324]	4.15E+05	7.27E+05	–	–	–	–	–	–	–	–	–
–	–	–	14.07	0.19	110.13	CCCC/C=C\CCOCOCCCCOC(=O)C(O)CN(CCN(C)CCN(CC(O)C(=O)OCCCCOCOCC/C=C\CCCC)CC(O)C(=O)OCCCCOCOCC/C=C\CCCC)CC(O)C(=O)OCCCCOCOCC/C=C\CCCC (centres unmarked) [Compound L0335]	–	–	1.99E+06	9.08E+07	37.57	1.92E+07	2.72	1.39E+06	59.71	3.05E+07	–
–	–	–	4.21	0.13	78.38	CCCCCCC(CCCCCC)C(=O)OCCCCCCOC(=O)C(O)CN(CCN(C)CCN(CC(O)C(=O)OCCCCCCOC(=O)C(CCCCCC)CCCCCC)CC(O)C(=O)OCCCCCCOC(=O)C(CCCCCC)CCCCCC)CC(O)C(=O)OCCCCCCOC(=O)C(CCCCCC)CCCCCC (centres unmarked) [Compound L0336]	–	–	1.51E+08	9.63E+08	87.42	1.95E+08	0.71	1.59E+06	11.87	2.65E+07	–
–	–	–	28.07	0.2	102.07	CCCCCCCCCCOC(=O)C(O)CN(CCN(C)CCN(CC(O)C(=O)OCCCCCCCCCC)CC(O)C(=O)OCCCCCCCCCC)CC(O)C(=O)OCCCCCCCCCC (centres unmarked) [Compound L0337]	–	–	3.70E+05	2.05E+07	8.23	2.66E+06	2.94	9.51E+05	88.83	2.87E+07	–
–	–	–	19.13	0.22	96.63	CCCCCCCCCCCCCCOC(=O)C(O)CN(CCN(C)CCN(CC(O)C(=O)OCCCCCCCCCCCCCC)CC(O)C(=O)OCCCCCCCCCCCCCC)CC(O)C(=O)OCCCCCCCCCCCCCC (centres unmarked) [Compound L0338]	–	–	3.98E+05	8.55E+06	11.14	8.81E+05	3.68	2.91E+05	85.18	6.73E+06	–
–	–	–	12.37	0.15	126.63	CCCCCCCCCCOC(=O)C(O)CN(CCCN(CC(O)C(=O)OCCCCCCCCCC)CC(O)C(=O)OCCCCCCCCCC)CCCN(CC(O)C(=O)OCCCCCCCCCC)CC(O)C(=O)OCCCCCCCCCC (centres unmarked) [Compound L0339]	–	–	8.33E+07	5.92E+07	28.78	1.17E+07	0.41	1.67E+05	70.81	2.87E+07	–
